Assay results taken from US20240150755A1, “MODULATING REGULATORY T CELL FUNCTION IN AUTOIMMUNE DISEASE AND CANCER” (Salk Institute for Biological Studies, priority 2021, published 2024).

Legend:
Assay type in all cases: cell-based, mouse
[1] = test system: Foxp3-bound sites; test: Foxp3 ChIP-seq in Treg cells
Description: For large scale Treg culture, Tregs were first expanded in Rosa-Cas9/Foxp3^Thy1.1 mice by injecting IL-2:IL-2 antibody immune complex according protocol described in Webster et. al (J Exp Med 206, 751-760, 2009). Spleen and lymph node Treg cells were labeled with PE-conjugated Thy1.1 antibody and isolated by magnetic selection using anti-PE microbeads (Mitenyl #130-048-801). All isolated Treg cells were activated by plate bound anti-CD3 and anti-CD28 antibodies and cultured with X-VIVO® 20 media (LONZA #04-448Q) supplemented by 1× Pen/Strep, 1× Sodium pyruvate, 1× HEPES, 1× GlutaMax™, 55 μM beta-mercaptoethanol in the presence of IL-2 at 500 units/mL. For experiments with Brd9 degradation, Treg cells were treated at day 0 with 2.5 μM dBRD9 (Tocris #6606) and cultured for four days for RNA- and ChIP-seq and 0.16-10 μM treated at day 0 and cultured dBRD9 for four days for Foxp3 MFI, cell viability and cell proliferation assays. Live cells were enriched by Ficoll-Paque® 1.084 (GE Health 17-5446-02) for RNA-seq and ChIP-seq.
(§1) Treg cells were collected and cross-linked first in 3 mM disuccinimidyl glutarate (DSG) in 1×PBS for thirty minutes then in 1% formaldehyde for another ten minutes, both at RT, for chromatin binding protein ChIP or in 1% formaldehyde only for histone modification ChIP. After quenching the excess cross-linker with a final concentration of 125 mM glycine, the cells were washed in 1× PBS, pelleted, flash-frozen in liquid nitrogen, and stored at −80° C. Cell pellets were thawed on ice and incubated in lysis solution (50 mM HEPES-KOH pH 8, 140 mM NaCl, 1 mM EDTA, 10% glycerol, 0.5% NP40, 0.25% Triton X-100) for ten minutes. The isolated nuclei were washed with wash solution (10 mM Tris-HCl pH 8, 1 mM EDTA, 0.5 mM EGTA, 200 mM NaCl) and shearing buffer (0.1% SDS, 1 mM EDTA, 10 mM Tris-HCl pH 8) then sheared in a Covaris® E229 sonicator for ten minutes to generate DNA fragments between ˜200-1000 base pairs (bp). After clarification of insoluble material by centrifugation, the chromatin was immunoprecipitated overnight at 4° C. with antibodies against Foxp3, Smarca4, Brd9, Phf10 or H3K27ac. The next day, the antibody bound DNA was incubated with Protein A+G Dynabeads™ (Invitrogen) in ChIP buffer (50 mM HEPES-KOH pH 7.5, 300 mM NaCl, 1 mM EDTA, 1% Triton X-100, 0.1% DOC, 0.1% SDS), washed and treated with Proteinase K and RNase A. Cross-linking was reversed by incubation at 55° C. for two and a half hours. Purified ChIP DNA was used for library generation (NuGen Ovation® Ultralow Library System V2) according to manufacturer's instructions for subsequent sequencing.
Single-end 50 bp or paired-end 42 bp reads were aligned to mouse genome mm10 using STAR alignment tool (V2.5) (Dobin et al., Bioinformatics 29:15-21, 2013). ChIP-Seq peaks were called using findPeaks within HOMER using parameters for histone (-style histone) or transcription factor (-style factor) (homer.ucsd.edu/homer/index.html). Peaks were called when enriched >two-fold over input and >four-fold over local tag counts, with FDR 0.001. For histone ChIP, peaks within a 1000 bp range were stitched together to form regions. Differential ChIP peaks were found by merging peaks from control and experiment groups and called using getDiffExpression.pl with fold change ≥1.5 or ≤−1.5, Poisson p value<0.0001.

[2] = test system: Brd9-dependent Foxp3 binding sites; test: ATAC-seq chromatin accessibility in Treg cells; conditions: sgBrd9 vs sgNT Treg cells; 61/1699 sites
Protocol: ATAC-seq was performed according to previously published protocol (Corces et al., Nat Methods 14:959-962, 2017). Briefly, Tregs transduced with either sgNT or sgBrd9 were subjected to Ficoll™ gradient purification to remove dead cells and ensure capture of cells that were 99% viable. 50,000 Treg cells were collected in duplicates per genotype and washed first with cold 1×PBS then with Resuspension buffer (RSB; 10 mM Tris-HCl pH 7.4, 10 mM NaCl, 3 mM MgCl2). Cells were lysed in 50 μL of RSB supplemented with 0.1% NP40, 0.01% Digitonin and 0.1% Tween 20 for 3 minutes on ice then diluted with 1 mL of RSB with 0.1% Tween 20. […]
ATAC-seq data analysis used the following tools and versions: cutadapt (v2.4), samtools (v1.9), Picard (v1.7.1), BWA (v0.7.12), macs2 (v2.1.2), and HOMER (v4.11). Paired end 42 bp reads were trimmed using cutadapt to remove Nextera™ adapter sequences then aligned to the reference mouse genome mm10 using BWA. The following were filtered out using Picard and samtools: duplicate reads, mitochondrial reads, low quality reads (Q<20), and improperly paired or unpaired reads. Quality was assessed by calculating Fraction of Reads In Peaks ([…]) which were >40% for all samples. TSS enrichment was determined using mm10 Refseq TSSs. […]

[3] = test system: H3K27ac; test: H3K27ac ChIP-seq in Treg cells; conditions: sgRNA transduced Treg cells
Protocol: as §1, with “The next day, the antibody bound DNA was incubated with Protein A+G Dynabeads™ (Invitrogen) in ChIP buffer (50 mM HEPES-KOH pH 7.5, 300 mM NaCl, 1 mM EDTA, 1% Triton X-100, 0.1% DOC, 0.1% SDS), washed and treated with Proteinase K and RNase A. Cross-linking was reversed by incubation at 55° C. for two and a half hours. Purified ChIP DNA was used for library generation (NuGen Ovation® Ultralow Library System V2) according to manufacturer's instructions for subsequent sequencing.” left out
Single-end 50 bp or paired-end 42 bp reads were aligned to mouse genome mm10 using STAR alignment tool (V2.5) (Dobin et al., Bioinformatics 29:15-21, 2013). […]

## sgBrd9: sgRNA targeting Brd9, ATTAACCGGTTTCTCCCGGG (SEQ ID NO: 12) (expressed or natural sequence)
[1]; sgBrd9 Treg cells plus ectopic Foxp3
  Brd9-dependent sites where binding was not rescued by restoring Foxp3 expression: ~71%
[1]; sgRNA transduced Treg cells
  Foxp3 binding at CNS2/CNS0: marked reduction of Foxp3 binding at CNS2/CNS0
[1]; sgRNA transduced Treg cells plus MIGR-Foxp3
  Foxp3 binding with ectopic Foxp3 expression: partially restored Foxp3 binding
[1]; sgRNA transduced Treg cells, FC1.5, Poisson p<0.0001
  Foxp3 binding at a subset of Foxp3 sites (Brd9-dependent sites): significantly reduced
[2]
  Brd9-dependent Foxp3 binding sites with significant reduction in chromatin accessibility: 3.5%
[3]
  H3K27ac at Brd9-dependent Foxp3 sites: reduction in H3K27ac
